Results: US8222288B2, “Small molecule inhibitors of MDM2 and the uses thereof” (The Regents of the University of Michigan, priority 2006, dated 2012)
“And” between values parts separate entries of the source, which are not always exact repeats. Equal values may be shown once. Read-outs that look alike come from different tables or passages of the source.

Columns and labels:
[1] = molecular target: MDM2 protein (Homo sapiens, UniProt Q00987); experiment: MDM2 binding assay (competition with F-6 probe; IC50 and calculated Ki); conditions: F-6 [1 nM]; for IC50: MDM2 [10 nM], repeat determinations listed line by line; for Ki: value in parentheses, calculation of Ki: MDM2 [10 nM], read-out: (Ki ± SD)
Chain of MDM2 protein (Q00987 whole entry, species assumed): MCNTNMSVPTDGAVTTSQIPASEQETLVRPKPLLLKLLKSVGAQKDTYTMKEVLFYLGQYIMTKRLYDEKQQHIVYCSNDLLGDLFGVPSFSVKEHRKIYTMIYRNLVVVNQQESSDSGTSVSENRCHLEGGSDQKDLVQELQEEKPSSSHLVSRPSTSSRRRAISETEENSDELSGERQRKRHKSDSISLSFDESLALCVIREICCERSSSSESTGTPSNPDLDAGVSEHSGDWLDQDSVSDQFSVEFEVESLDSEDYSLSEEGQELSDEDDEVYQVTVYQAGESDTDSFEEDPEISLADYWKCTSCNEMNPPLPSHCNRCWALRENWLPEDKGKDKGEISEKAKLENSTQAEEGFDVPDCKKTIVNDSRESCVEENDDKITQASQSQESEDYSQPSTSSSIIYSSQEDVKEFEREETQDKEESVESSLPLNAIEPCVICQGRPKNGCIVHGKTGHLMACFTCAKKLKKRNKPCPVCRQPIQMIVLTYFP

[2] = system: LNCaP (p53 wild-type) cells; experiment: Cell growth inhibition, WST-8, 4 days, LNCaP; conditions: single runs and mean ± SD line
Procedure: (§1) To test these predictions, a cell growth assay was developed using human prostate cancer LNCaP (p53 wild-type) and PC-3 (p53 null) cell lines.
(§2) Cells were seeded in 96-well flat bottom cell culture plates at a density of 3-4×10^3 cells/well and incubated in the presence of compounds for 4 days.

[3] = system: HCT116 p53KO cells; experiment: Cell growth inhibition, HCT116 p53KO; conditions: single runs and mean ± SD line
Procedure: as §2

[4] = system: PC-3 (p53 null) cells; experiment: Cell growth inhibition, WST-8, 4 days, PC3; conditions: single runs and mean ± SD line
Procedure: as §1, §2

[5] = system: HCT116 (wild-type p53) colon cancer cells; experiment: Cell growth inhibition, HCT116 p53WT; conditions: single runs and mean ± SD line
Procedure: as §2

[6] = Homo sapiens, LNCaP, 96 h, read-out: LNCaP IC50 (μM), LNCaP p53 wild-type, 4 days, WST-8
[7] = Homo sapiens, HCT-116, read-out: HCT116 p53KO IC50 (μM), HCT116 p53KO
[8] = Homo sapiens, 96 h, read-out: PC3 IC50 (μM), PC3 p53 null, 4 days, WST-8
[9] = read-out: PC3 IC50, PC3 p53 null, 4 days, WST-8
[10] = read-out: HCT116 p53KO IC50, HCT116 p53KO
[11] = Homo sapiens, HCT-116, read-out: HCT116 p53WT IC50 (μM), HCT116 p53WT
[12] = read-out: LNCaP IC50, LNCaP p53 wild-type, 4 days, WST-8
[13] = read-out: HCT116 p53WT IC50, HCT116 p53WT

| SMILES | IC50 [1] | IC50 [2, 6] | IC50 [3, 7] | IC50 [4, 8] | IC50 [5, 11] | other results |
| --- | --- | --- | --- | --- | --- | --- |
| CC(C)(C)C[C@H]1N[C@@H](C(=O)NCCC2CCC(O)C2)[C@H](c2ccc(F)c(Cl)c2)[C@@]12C(=O)Nc1cc(Cl)c(F)cc12 (single isomer, unassigned) [MDM2-319-6, 6-CHLORO-4′-(3-CHLORO-4-FLUOROPHENYL)-2′-(2,2-DIMETHYL-PROPYL)-5-FLUORO-2-OXO-1,2-DIHYDRO-SPIRO[INDOLE-3,3′-PYRROLIDINE]-5′-CARBOXYLIC ACID [2-(3-HYDROXY-CYCLOPENTYL)-ETHYL]-AMIDE] | 0.59 µM and 0.55 µM | – | – | – | – | – |
| CC(C)(C)C[C@H]1N[C@@H](C(=O)NCC[C@H](O)CO)[C@H](c2ccc(F)c(Cl)c2)[C@@]12C(=O)Nc1cc(Cl)c(F)cc12 [MDM2-319, (2′R,3S,3″S,4′R,5′R)6-CHLORO-4′-(3-CHLORO-4-FLUORO-PHENYL)-2′-(2,2-DIMETHYL-PROPYL)-5-FLUORO-2-OXO-1,2-DIHYDRO-SPIRO[INDOLE-3,3′-PYRROLIDINE]-5′-CARBOXYLIC ACID (3,4-DIHYDROXY-BUTYL)-AMIDE] | – | 0.229 ± 0.04 µM | 12.8 ± 1.29 µM | – | – | – |
| O=C(NCC[C@H](O)CO)[C@@H]1N[C@H](CC2CCCC2)[C@]2(C(=O)Nc3cc(Cl)c(F)cc32)[C@H]1c1ccc(F)c(Cl)c1 [MDM2-319-1, 6-CHLORO-4′-(3-CHLORO-4-FLUOROPHENYL)-2′-CYCLOPENTYLMETHYL-5-FLUORO-2-OXO-1,2-DIHYDRO-SPIRO[INDOLE-3,3′-PYRROLIDINE]-5′-CARBOXYLIC ACID (3,4-DIHYDROXY-BUTYL)-AMIDE] | 0.194 µM and 0.072 µM | – | – | – | – | – |
| O=C(NCC[C@H](O)CO)[C@@H]1N[C@H](Cc2ccccc2)[C@]2(C(=O)Nc3cc(Cl)c(F)cc32)[C@H]1c1ccc(F)c(Cl)c1 [MDM2-319-2] | 175 µM and > 80 µM | – | 22.2 µM | 14.4 µM | – | Ki [1]: 16.4 µM; IC50 [4, 9]: 19.6 µM (2×) and 17.9 µM; IC50 [3, 10]: 19.5 µM and 25.4 µM and 22.4 µM |
| O=C(NCC[C@H](O)CO)[C@@H]1N[C@H](C2CCCCC2)[C@]2(C(=O)Nc3cc(Cl)c(F)cc32)[C@H]1c1ccc(F)c(Cl)c1 [MDM2-319-4, 6-CHLORO-4′-(3-CHLORO-4-FLUOROPHENYL)-2′-CYCLOHEXYL-5-FLUORO-2-OXO-1,2-DIHYDRO-SPIRO[INDOLE-3,3′-PYRROLIDINE]-5′-CARBOXYLIC ACID (3,4-DIHYDROXY-BUTYL)-AMIDE] | 0.71 µM and 1.16 µM and 0.46 µM | – | – | – | – | Ki [1]: 0.066 µM |
| CC(C)(C)C[C@H]1N[C@@H](C(=O)NCCC2CCC(O)C2)[C@H](c2ccc(F)c(Cl)c2)[C@@]12C(=O)Nc1cc(Cl)c(F)cc12 (some centres unmarked) [MDM2-319-5] | 0.055 µM and 0.04 µM | 0.602 µM | 10.5 µM | 9.47 µM | 0.993 µM | – |
| COC(C)(C)C[C@H]1N[C@@H](C(=O)NCC[C@H](O)CO)[C@H](c2ccc(F)c(Cl)c2)[C@@]12C(=O)Nc1cc(Cl)c(F)cc12 [MI-319-7] | 39.3 µM | 2.17 µM | – | 39.7 µM | 8.22 µM | – |
| O=C(NCC[C@H](O)CO)[C@@H]1N[C@H](C2CCCC2)[C@]2(C(=O)Nc3cc(Cl)c(F)cc32)[C@H]1c1ccc(F)c(Cl)c1 [MI-319-8, 6-CHLORO-4′-(3-CHLORO-4-FLUOROPHENYL)-2′-CYCLOPENTYL-5-FLUORO-2-OXO-1,2-DIHYDRO-SPIRO[INDOLE-3,3′-PYRROLIDINE]-5′-CARBOXYLIC ACID (3,4-DIHYDROXY-BUTYL)-AMIDE] | 0.34 µM and 0.53 µM | – | – | – | – | – |
| CN1CCN(C(=O)[C@@H]2N[C@H](CC(C)(C)C)[C@]3(C(=O)Nc4cc(Cl)c(F)cc43)[C@H]2c2ccc(F)c(Cl)c2)CC1 [MI-319-9] | 3.58 µM | 2.87 µM | – | – | – | IC50 [2, 12]: 2.77 µM and 1.75 µM |
| CC(C)(C)C[C@H]1N(S(=O)(=O)C(F)(F)F)[C@@H](C(=O)NCCN2CCOCC2)[C@H](c2ccc(F)c(Cl)c2)[C@@]12C(=O)Nc1cc(Cl)c(F)cc12 [MI-319-10] | – | 0.776 µM | – | 10.5 µM | 1.41 µM | IC50 [4, 9]: 10.4 µM and 8.07 µM and 9.63 µM; IC50 [2, 12]: 0.828 µM and 0.449 µM and 0.68 µM; IC50 [5, 13]: 1.95 µM and 1.09 µM and 1.48 µM |
| CC(=O)N1[C@@H](C(=O)NCC[C@H](O)CO)[C@H](c2ccc(F)c(Cl)c2)[C@@]2(C(=O)Nc3cc(Cl)c(F)cc32)[C@H]1CC(C)(C)C [MI-319-13, 1′-ACETYL-6-CHLORO-4′-(3-CHLORO-4-FLUOROPHENYL)-2′-(2,2-DIMETHYL-PROPYL)-5-FLUORO-2-OXO-1,2-DIHYDRO-SPIRO[INDOLE-3,3′-PYRROLIDINE]-5′-CARBOXYLIC ACID (3,4-DIHYDROXY-BUTYL)-AMIDE] | 5.87 µM and 5.04 µM | – | 32.6 µM | – | – | IC50 [3, 10]: 35.1 µM and 33 µM and 33.6 µM |
| CC(C)(C)C[C@H]1N[C@@H](C(=O)NCC(=O)O)[C@H](c2ccc(F)c(Cl)c2)[C@@]12C(=O)Nc1cc(Cl)c(F)cc12 [MI-319-15, {[6-CHLORO-4′-(3-CHLORO-4-FLUOROPHENYL)-2′-(2,2-DIMETHYL-PROPYL)-5-FLUORO-2-OXO-1,2-DIHYDRO-SPIRO[INDOLE-3,3′-PYRROLIDINE]-5′-CARBONYL]-AMINO}-ACETIC ACID] | 0.35 µM and 0.18 µM | 4.52 µM | > 30 µM | > 30 µM | 12.1 µM | IC50 [2, 12]: 4.12 µM and 6.11 µM and 4.92 µM; IC50 [5, 13]: 12.9 µM and 13.9 µM and 13 µM |
| CC(C)(C)C[C@H]1N[C@@H](C(=O)NCC[C@H](O)C(=O)O)[C@H](c2ccc(F)c(Cl)c2)[C@@]12C(=O)Nc1cc(Cl)c(F)cc12 [MI-319-16] | – | – | – | > 30 µM | > 30 µM | – |
| CC(C)(C)C[C@H]1N[C@@H](C(=O)NCCn2ccnc2)[C@H](c2ccc(F)c(Cl)c2)[C@@]12C(=O)Nc1cc(Cl)c(F)cc12 [MI-319-17, 6-CHLORO-4′-(3-CHLORO-4-FLUOROPHENYL)-2′-(2,2-DIMETHYL-PROPYL)-5-FLUORO-2-OXO-1,2-DIHYDRO-SPIRO[INDOLE-3,3′-PYRROLIDINE]-5′-CARBOXYLIC ACID (2-IMIDAZOL-1-YL-ETHYL)-AMIDE] | 0.39 µM and 0.49 µM | – | – | – | – | – |
| CC(C)(C)C[C@H]1N[C@@H](C(=O)NCC[C@@H](O)C[C@@H](O)CC(=O)O)[C@H](c2ccc(F)c(Cl)c2)[C@@]12C(=O)Nc1cc(Cl)c(F)cc12 [MI-319-18, 7-{[6-CHLORO-4′-(3-CHLORO-4-FLUOROPHENYL)-2′-(2,2-DIMETHYL-PROPYL)-5-FLUORO-2-OXO-1,2-DIHYDRO-SPIRO[INDOLE-3,3′-PYRROLIDINE]-5′-CARBONYL]-AMINO}-3,5-DIHYDROXY-HEPTANOIC ACID] | 3.51 µM and 3.57 µM | > 30 µM | > 30 µM | > 30 µM | > 30 µM | – |
| CC(C)(C)C[C@H]1N[C@@H](C(=O)NC[C@H](O)[C@H](O)CO)[C@H](c2ccc(F)c(Cl)c2)[C@@]12C(=O)Nc1cc(Cl)c(F)cc12 [MI-319-19, 6-CHLORO-4′-(3-CHLORO-4-FLUOROPHENYL)-2′-(2,2-DIMETHYL-PROPYL)-5-FLUORO-2-OXO-1,2-DIHYDRO-SPIRO[INDOLE-3,3′-PYRROLIDINE]-5′-CARBOXYLIC ACID (2,3,4-TRIHYDROXY-BUTYL)-AMIDE] | 0.5 µM and 0.49 µM | – | – | – | – | – |
| CC(C)(C)C[C@H]1N[C@@H](C(=O)NCCNC(=N)N)[C@H](c2ccc(F)c(Cl)c2)[C@@]12C(=O)Nc1cc(Cl)c(F)cc12 [MI-319-20, 6-CHLORO-4′-(3-CHLORO-4-FLUOROPHENYL)-2′-(2,2-DIMETHYL-PROPYL)-5-FLUORO-2-OXO-1,2-DIHYDRO-SPIRO[INDOLE-3,3′-PYRROLIDINE]-5′-CARBOXYLIC ACID (2-GUANIDINO-ETHYL)-AMIDE] | – | 27.4 µM | – | – | – | IC50 [2, 12]: 31.6 µM |
| CC(C)(C)C[C@H]1N[C@@H](C(=O)NCCc2ncc[nH]2)[C@H](c2cccc(Cl)c2)[C@@]12C(=O)Nc1cc(Cl)c(F)cc12 [MI-319-21] | – | 2.84 µM | 11.8 µM | 21.9 µM | 4.4 µM | – |
